{"source": "patent US20090022739A1", "about": "“MODULATING THE KV1.1 VOLTAGE-GATED POTASSIUM CHANNEL IN T-CELLS FOR REGULATING THE […] AND SECRETION OF TUMOR NECROSIS FACTOR ALPHA (tnf-ALPHA) AND TREATING HUMAN DISEASE OR INJURIES MEDIATED BY […] HIGH OR LOW LEVELS OF TNF-ALPHA” (priority 2005, published 2009)", "key": {"NF-κB p50": {"test_system": "NF-κB p50", "experiment": "Immunofluorescent histochemistry for NF-κB p50 nuclear translocation", "type": "cell-based, human", "conditions": "100 nM DTX-K; 7 minutes; FIG. 3C", "method": "Immunofluorescent Histochemistry for NF-κB: Freshly-isolated normal human T-cells that were pretreated or not with DTX-K (100 nM for 7, 15, 30 and 60 minutes), were pelleted (1200 g, 10 minutes, […]), suspended in PBS at 1×10^6 cells/ml, centrifuged (1200 g, 10 minutes), fixed on glass slide by cytospin (250 μl/slide, 1500 rpm, 5 minutes; Shandon Elliot, London, UK), permeablized (200 μl/slide of a solution containing 100 ml 95% methanol and 3 ml acetic acid glacial), and incubated in a blocking medium (200 μl/slide) containing 10% normal goat serum, 2% BSA, 1% glycine and 0.5% triton X-100. The cells were then stained with a rabbit anti-human NF-κB p50 polyclonal Ab (80 μl of 1:50 dilution for 30 minutes at room temperature; Santa Cruz Biotechnology, Santa Cruz, Calif.). […]\nIn case of the TNF-α gene, the observed importance of NF-κB for the expression of the TNFα gene may depend on the cell type and the segment of the enhancer/promoter analyzed (Siebenlist et al, 1990). […]\nIn the experiment the results of which are shown in FIG. 3C, normal human T-cells were either left untreated or treated with 100 nM DTX-K for 7, 15, 30 and 60 minutes (see DTX-K treatment time above each respective column). […] Representative photographs at ×100 magnification are shown for NF-κB p50 green fluorescence (upper panel), nuclei blue fluorescence (middle panel), and overlay of both (lower panel). […]"}, "TNF-α mRNA": {"test_system": "TNF-α mRNA", "experiment": "RT-PCR for TNF-α mRNA in normal human T-cells", "type": "cell-based", "conditions": "100 nM DTX-K for 24 hr; normalized to S14; FIG. 3A", "method": "RT-PCR for TNF-α and Kv1.1: Total RNA was prepared according to Tri-Reagent protocol (MRC, Cincinnati, Ohio). First-strand cDNA was synthesized by Reverse Transcription System (Promega, Madison, Wis.). RT-PCR was conducted in a 50 μl reaction mixture containing 50 ng cDNA, 5 μl of X10 Optibuffer (Bioline, London, UK), 3 μl of 50 mM MgCl2, 2.5 μl of 10 mM dNTP mix (Promega), 4U of Bio-X-act DNA Polymerase (Bioline). For TNF-α/S14 parallel amplification, 2 μl of each TNF-α primer (10 pmol/μl) and 0.25 μl of each S14 primer (10 pmol/μl) were used. For Kv1.1/S14 parallel amplification, 5 μl of each Kv1.1 primer (100 pmol/μl) and 2.5 μl of each S14 primer (10 pmol/μl) were used. […]; Conditions for TNF-α PCR were: 94° C. for 1 minute, 63° C. for 40 seconds and 72° C. for 40 seconds (29 cycles). Conditions for Kv1.1 PCR were: 94° C. for 3 minutes (one cycle); 94° C. for 1 minute, 60/57/54/51/48° C. for 2 minutes and 72° C. for 3 minutes (three cycles each); 94° C. for 1 minute, 50° C. for 2 minutes and 72° C. for 3 minutes (25 cycles). […]\nThe question of whether selective block of Kv1.1 subunit containing channels in T-cells elevates not only the levels of the TNF-α protein, but also TNF-α mRNA was studied next. […] Bars at the bottom represent fold increase TNF-α mRNA calculated following densitometric analysis and normalization of the corresponding RT-PCR bands of TNF-α/S14. […]"}, "Kv1.1": {"molecular_target": "Kv1.1 (Homo sapiens, UniProt Q09470)", "sequence (Q09470 whole entry)": "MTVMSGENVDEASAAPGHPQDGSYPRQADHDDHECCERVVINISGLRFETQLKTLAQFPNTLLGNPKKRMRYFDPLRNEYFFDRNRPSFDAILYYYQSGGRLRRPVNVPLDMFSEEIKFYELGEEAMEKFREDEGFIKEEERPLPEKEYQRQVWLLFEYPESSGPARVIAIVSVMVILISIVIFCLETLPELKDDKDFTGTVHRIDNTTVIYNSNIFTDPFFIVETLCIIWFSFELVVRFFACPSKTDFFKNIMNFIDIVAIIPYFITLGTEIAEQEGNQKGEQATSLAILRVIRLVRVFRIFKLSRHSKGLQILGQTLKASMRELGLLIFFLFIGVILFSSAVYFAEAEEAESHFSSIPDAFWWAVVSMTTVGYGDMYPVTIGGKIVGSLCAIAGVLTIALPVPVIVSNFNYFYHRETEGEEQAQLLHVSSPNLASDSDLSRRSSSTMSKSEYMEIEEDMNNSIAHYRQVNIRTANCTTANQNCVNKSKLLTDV", "conditions": "cited from earlier work"}}}
{"substance": "Dendrotoxin-K (AAKYCKLPLRIGPCKRKIPSFYYKWKAKQCLPFDYSGCGGNANRFKTIEECRRTCVG) [DTX-K]", "values": [{"measurement": "NF-κB p50 staining of the cell nucleus", "setting": "NF-κB p50", "value": "clearly positive for NF-κB p50"}, {"measurement": "TNFα mRNA levels", "setting": "TNF-α mRNA", "value": "augmented"}, {"measurement": "active concentration, Kv1.1 channel block", "setting": "Kv1.1", "value": "picomolar concentrations"}]}
